In patent US20250186391A1, “ORAL COMPLEMENT FACTOR D INHIBITORS” (BioCryst Pharmaceuticals, Inc., priority 2019, published 2025):

Target: Factor D (Homo sapiens (Human), UniProt P00746)
Test: Factor D esterolytic assay
Assay type: biochemical
Conditions: Z-Lys-SBzl substrate, 100 mM HEPES, 500 mM NaCl, pH 7.5, 10% DMSO; tested a minimum of three times; read-out: Measured Ki (IC50) Value for Compounds: IC50
Description: The IC50 value of a compound (i.e., the concentration of the compound that inhibits 50% of the enzymatic activity) was calculated according to the procedure reported in U.S. Pat. No. 6,653,340 B1, e.g., column 74 (incorporated by reference).
Specifically, the compounds were dissolved in a stock solution of DMSO at 10.0 or 100 mM. A portion of this stock solution was added to assay buffer in a final volume of 50 μL. Controls included buffer alone and enzyme solutions to which DMSO was added. Substrate was added to the reaction wells immediately or after incubation at room temperature. The reaction rates were measured spectrophotometrically by the generation of product at 405 nm for 600 sec. Background absorbance at 690 nm was measured and subtracted from the absorbance at 405 nm for each well.
The reaction rate for enzyme alone was compared to the rate of enzyme in the presence of inhibitor and the percent inhibition was calculated as shown below: […]
An established esterolytic assay for the measurement of Factor D activity and inhibition of Factor D activity was used (Kam, C. M.; McRae, B. J.; Harper, J. W.; Niemann, M. A.; Volanakis, J. E.; Powers, J. C. Human complement proteins D, C2, and B Active site mapping with peptide thioester substrates. J Biol. Chem. 1987, 262, 3444-3451). For this assay Z-Lys-SBzl, 1.29 mM (Kim, S.; Narayana, S. V. L; Volanakis, J. E. Mutational analysis of the substrate binding site of human complement Factor D. Biochemistry. 1994, 33, 14393-14399.) was used as the substrate for Factor D ([…]). Hydrolysis of this compound by Factor D liberated a free sulfhydryl group which is then reacted with 5,5′-dithiobis(2nitrobenzoic acid) producing an intense yellow color (Habeeb, A. F. S. A. Reaction of protein sulfhydryl groups with Ellman's Reagent. Methods in Enzymol. 1976, 25, 457-464.). The assays were performed in 96 well microtiter plates and rates of hydrolysis were monitored at 405 nm on a Biotek Synergy H1 plate reader. Hydrolysis rates were reported as change in mOD/min. The assay was conducted in 100 mM HEPES, 500 mM NaCl, pH 7.5 containing 10% DMSO in a final volume of 50 μL per well.
An IC50, a compound concentration which inhibits 50% of the enzymatic activity, was calculated. Compounds in the examples were tested a minimum of three times.

Factor D, sequence (P00746 26-253): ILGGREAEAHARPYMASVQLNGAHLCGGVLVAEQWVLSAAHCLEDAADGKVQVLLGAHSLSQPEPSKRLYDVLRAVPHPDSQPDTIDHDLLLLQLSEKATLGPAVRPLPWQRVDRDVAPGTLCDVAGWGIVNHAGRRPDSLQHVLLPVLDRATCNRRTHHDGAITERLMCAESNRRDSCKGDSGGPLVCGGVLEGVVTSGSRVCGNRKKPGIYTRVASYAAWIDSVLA

Row | SMILES | IC50 [µM]
1 | NCc1cccc(-c2ccc3occ(COc4ccccc4CCC(=O)O)c3c2)c1 [Compound 2d, 3-(2-((5-(3-(aminomethyl)phenyl)benzofuran-3-yl)methoxy)phenyl)propanoic acid] | 1 to 10
2 | NCc1cccc(-c2ccc3occ(COc4cccc(CC(=O)O)c4)c3c2)c1 [Compound 4d, 2-(3-((5-(3-(aminomethyl)phenyl)benzofuran-3-yl)methoxy)phenyl)acetic acid] | 1 to 10
3 | NCc1cccc(-c2cccc3cc(COc4ccccc4CC(=O)O)oc23)c1 [Compound 19e, 2-(2-((7-(3-(aminomethyl)phenyl)benzofuran-2-yl)methoxy)phenyl)acetic acid] | < 1
4 | NCc1cccc(-c2cc(COc3ccccc3CC(=O)O)cc3cc(CCOc4ccccc4CC(=O)O)oc23)c1 [Compound 20j, 2-(2-((7-(3-(aminomethyl)phenyl)-2-(2-(2-(carboxymethyl)phenoxy)ethyl)benzofuran-5-yl)methoxy)phenyl)acetic acid] | < 1
5 | NCc1cccc(-c2cccc3cc(C(=O)Nc4ccccc4CC(=O)O)oc23)c1 [Compound 21b, 2-(2-(7-(3-(aminomethyl)phenyl)benzofuran-2-carboxamido)phenyl)acetic acid] | 1 to 10
6 | CCOC(=O)Cc1ccccc1OCc1cc(-c2cccc(CN)c2)c2oc(COc3ccccc3CC(=O)O)cc2c1 [Compound 22e, 2-(2-((7-(3-(aminomethyl)phenyl)-5-((2-(2-ethoxy-2-oxoethyl)phenoxy)methyl)benzofuran-2-yl)methoxy)phenyl)acetic acid] | < 1
7 | COC(=O)c1cc(-c2cccc(CN)c2)c2oc(COc3ccccc3CC(=O)O)cc2c1 [Compound 23c, 2-(2-((7-(3-(aminomethyl)phenyl)-5-(methoxycarbonyl)benzofuran-2-yl)methoxy)phenyl)acetic acid] | < 1
8 | CC(C)(C)OC(=O)Cc1ccccc1OCc1cc2cc(COc3ccccc3CC(=O)O)cc(-c3cccc(CN)c3)c2o1 [Compound 24a, 2-(2-((7-(3-(aminomethyl)phenyl)-2-((2-(2-(tert-butoxy)-2-oxoethyl)phenoxy)methyl)benzofuran-5-yl)methoxy)phenyl)acetic acid] | < 1
9 | CCOC(=O)Cc1ccccc1OCc1cc2c(-c3cccc(CN)c3)cccc2o1 [Compound 25c, ethyl 2-(2-((4-(3-(aminomethyl)phenyl)benzofuran-2-yl)methoxy)phenyl)acetate] | > 10
10 | NCc1cccc(-c2cccc3oc(COc4ccccc4CC(=O)O)cc23)c1 [Compound 26a, 2-(2-((4-(3-(aminomethyl)phenyl)benzofuran-2-yl)methoxy)phenyl)acetic acid] | < 1
11 | NCc1cc(-c2cc(COc3ccccc3CC(=O)O)cc3cc(COc4ccccc4CC(=O)O)oc23)ccn1 [Compound 27e, 2,2′-((((7-(2-(aminomethyl)pyridin-4-yl)benzofuran-2,5-diyl)bis(methylene))bis(oxy))bis(2,1-phenylene))diacetic acid] | < 1
12 | NCc1nccc(-c2cc(COc3ccccc3CC(=O)O)cc3cc(COc4ccccc4CC(=O)O)oc23)c1F [Compound 28d, 2,2′-((((7-(2-(aminomethyl)-3-fluoropyridin-4-yl)benzofuran-2,5-diyl)bis(methylene))bis(oxy))bis(2,1-phenylene))diacetic acid] | < 1
13 | NCc1cccc(-c2cc(CO)cc3cc(COc4ccccc4CC(=O)O)oc23)c1 [Compound 29b, 2-(2-((7-(3-(aminomethyl)phenyl)-5-(hydroxymethyl)benzofuran-2-yl)methoxy)phenyl)acetic acid] | < 1
14 | NCc1cccc(-c2cccc3cc(COc4ccccc4CC(=O)O)sc23)c1 [Compound 30d, 2-(2-((7-(3-(aminomethyl)phenyl)benzo[b]thiophen-2-yl)methoxy)phenyl)acetic acid] | < 1
15 | CC(O)c1cc(-c2cccc(CN)c2)c2oc(COc3ccccc3CC(=O)O)cc2c1 (stereo not shown) [Compound 31, 2-(2-((7-(3-(aminomethyl)phenyl)-5-(1-hydroxyethyl)benzofuran-2-yl)methoxy)phenyl)acetic acid] | < 1
16 | NCc1cccc(-c2cc(F)cc3cc(COc4ccccc4CC(=O)O)oc23)c1 [Compound 31f, 2-(2-((7-(3-(aminomethyl)phenyl)-5-fluorobenzofuran-2-yl)methoxy)phenyl)acetic acid] | < 1

Continued, values first:

Row | IC50 [µM] | SMILES
17 | < 1 | NCc1cccc(-c2ccc3occ(COc4ccccc4C(=O)O)c3c2)c1 [Compound 1f, 2-((5-(3-(aminomethyl)phenyl)benzofuran-3-yl)methoxy)benzoic acid]
18 | < 1 | NCc1cccc(-c2ccc3occ(COc4ccc(F)cc4CC(=O)O)c3c2)c1 [Compound 5d, 2-(2-((5-(3-(aminomethyl)phenyl)benzofuran-3-yl)methoxy)-5-fluorophenyl)acetic acid]
19 | < 1 | COc1ccc(CC(=O)O)c(OCc2coc3ccc(-c4cccc(CN)c4F)cc23)c1 [Compound 6e, 2-(2-((5-(3-(aminomethyl)-2-fluorophenyl)benzofuran-3-yl)methoxy)-4-methoxyphenyl)acetic acid]
20 | < 1 | NCc1cccc(-c2cc(COc3ccccc3CC(=O)O)cc3cc(COc4ccccc4CC(=O)O)oc23)c1 [Compound 7f, 2,2′-((((7-(3-(aminomethyl)phenyl)benzofuran-2,5-diyl)bis(methylene))bis(oxy))bis(2,1-phenylene))diacetic acid]
21 | < 1 | NCc1cccc(-c2cc(-c3cccc(CN)c3)c3oc(COc4ccccc4CC(=O)O)cc3c2)c1 [Compound 8e, 2-(2-((5,7-bis(3-(aminomethyl)phenyl)benzofuran-2-yl)methoxy)phenyl)acetic acid]
22 | < 1 | NCc1cccc(-c2ccc3occ(COc4ccccc4CC(=O)O)c3c2)c1 [Compound 9e, 2-(2-((5-(3-(aminomethyl)phenyl)benzofuran-3-yl)methoxy)phenyl)acetic acid]
23 | < 1 | NCc1cccc(-c2ccc3occ(C(=O)Nc4ccccc4CC(=O)O)c3c2)c1 [Compound 10c, 2-(2-(5-(3-(aminomethyl)phenyl)benzofuran-3-carboxamido)phenyl)acetic acid]
24 | < 1 | NCc1cccc(-c2cc(CNCC3CC3)cc3cc(COc4ccccc4CC(=O)O)oc23)c1 [Compound 11d, 2-(2-((7-(3-(aminomethyl)phenyl)-5-(((cyclopropylmethyl)amino)methyl)benzofuran-2-yl)methoxy)phenyl)acetic acid]
25 | < 1 | CCc1ccc(CC(=O)O)c(OCc2coc3ccc(-c4cccc(CN)c4F)cc23)c1 [Compound 12g, 2-(2-((5-(3-(aminomethyl)-2-fluorophenyl)benzofuran-3-yl)methoxy)-4-ethylphenyl)acetic acid]
26 | < 1 | NCc1cccc(-c2cc(COc3ccccc3CC(=O)O)cc3cc(COc4ccccc4CC(=O)O)oc23)c1F [Compound 13b, 2,2′-((((7-(3-(aminomethyl)-2-fluorophenyl)benzofuran-2,5-diyl)bis(methylene))bis(oxy))bis(2,1-phenylene))diacetic acid]
27 | < 1 | NCc1cccc(-c2ccc3[nH]cc(C(=O)Nc4ccccc4CC(=O)O)c3n2)c1 [Compound 14c, 2-(2-(5-(3-(aminomethyl)phenyl)-1H-pyrrolo[3,2-b]pyridine-3-carboxamido)phenyl)acetic acid]
28 | < 1 | NCc1cccc(-c2cc(COc3ccccc3CCC(=O)O)cc3cc(COc4ccccc4CC(=O)O)oc23)c1 [Compound 15e, 3-(2-((7-(3-(aminomethyl)phenyl)-2-((2-(carboxymethyl)phenoxy)methyl)benzofuran-5-yl)methoxy)phenyl)propanoic acid]
29 | < 1 | NCc1cccc(-c2cc(COc3cccc(CC(=O)O)c3)cc3cc(COc4ccccc4CC(=O)O)oc23)c1 [Compound 16e, 2-(3-((7-(3-(aminomethyl)phenyl)-2-((2-(carboxymethyl)phenoxy)methyl)benzofuran-5-yl)methoxy)phenyl)acetic acid]
30 | < 1 | Cc1cc(-c2cccc(CN)c2)cc2c(COc3ccccc3CC(=O)O)coc12 [Compound 17e, 2-(2-((5-(3-(aminomethyl)phenyl)-7-methylbenzofuran-3-yl)methoxy)phenyl)acetic acid]
31 | < 1 | COc1cc(-c2cccc(CN)c2)cc2c(COc3ccccc3CC(=O)O)coc12 [Compound 18e, 2-(2-((5-(3-(aminomethyl)phenyl)-7-methoxybenzofuran-3-yl)methoxy)phenyl)acetic acid]
